Reference: patent publication EP1458697B1, “BIPHENYLMETHYL-THIAZOLIDINEDIONES AND ANALOGUES AND THEIR USE AS PPAR-GAMMA ACTIVATORS” (Galderma Research & Development, S.N.C., priority 2001, dated 2003)

What was measured:
[1] = target: T1, récepteur chimère Gal-PPARγ (LBD) (Homo sapiens, UniProt P37231); test: Transactivation test, Hela cells stably transfected with chimeric receptor Gal-PPARγ (LBD), luciferase readout; assay type: cell-based; conditions: M-HeLa, 24 h, compound at 1 microM, percent of activation relative to reference agonist at 1 µM, read-out: % d'activation (à 1 microM) PPARγ
T1 construct: le récepteur chimère Gal-PPARγ (LBD); Gal (fusion partner); expressed in transfected cells; host or cells: HeLa cells, stably transfected
T1 sequence (P37231 238-503 limits assumed): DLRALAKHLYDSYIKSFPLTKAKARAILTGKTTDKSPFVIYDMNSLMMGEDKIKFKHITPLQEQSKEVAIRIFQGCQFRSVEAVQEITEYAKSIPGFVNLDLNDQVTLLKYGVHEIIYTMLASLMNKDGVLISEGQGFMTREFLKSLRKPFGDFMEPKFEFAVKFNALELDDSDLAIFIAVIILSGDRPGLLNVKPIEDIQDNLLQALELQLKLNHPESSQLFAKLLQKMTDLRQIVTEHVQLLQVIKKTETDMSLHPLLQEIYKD
Method: L'activité agoniste vis à vis des récepteurs PPARγ des composés selon l'invention peut être évaluée par des tests de transactivation.
(§1) La capacité des molécules à activer et/ou inhiber les récepteurs PPARγ est évaluée à partir de cellules Hela transfectées de manière stable avec le récepteur chimère Gal-PPARγ (LBD).
(§2) Des plaques 96 puits sont ensemencées à raison de 10 000 cellules /100 µl / puit dans du milieu DMEM 10% SDL puis placées 24 heures à 37°C, 7% CO2.
(§3) Pour déterminer l'activité agoniste PPARγ, les cellules sont ensuite traitées par ajout de 5 µl puit des molécules à tester à la concentration finale de 1 µM. Des cellules sont également traitées en parallèle avec un agoniste de référence, l'acide (-)-3-{4-[2-(Benzooxazol-2-yl-methyl-amino)-ethoxy]-phenyl}-2-ethoxy-propionique, 1 µM.
(§4) Après une nouvelle incubation de 24 heures à 37°C, 7% CO2, un dosage de la luciférase est effectué à l'aide du kit « Steady-Glo Luciferase Assay System » de Promega. Le comptage de la luminescence se fait sur un lecteur de microplaque Microbéta Trilux (Wallac).
(§5) L'activité agoniste du produit testé sera exprimée en pourcentage d'activation par rapport au témoin agoniste l'agoniste de référence à 1 µM.
(§6) L'AC50, exprimée en nM, est déterminée comme la concentration permettant d'obtenir 50% d'activation du signal basal par rapport à l'agoniste de référence.

[2] = target: T2, récepteur chimère Gal-PPARα (Homo sapiens, UniProt Q07869); test: Transactivation test, same protocol with chimeric receptor Gal-PPARα; assay type: cell-based; conditions: 24 h; compound at 1 microM; percent of activation relative to reference agonist (Wy 14643 = 100%); Hela cells; read-out: % d'activation (à 1 microM) PPARα
T2 sequence (Q07869 167-468): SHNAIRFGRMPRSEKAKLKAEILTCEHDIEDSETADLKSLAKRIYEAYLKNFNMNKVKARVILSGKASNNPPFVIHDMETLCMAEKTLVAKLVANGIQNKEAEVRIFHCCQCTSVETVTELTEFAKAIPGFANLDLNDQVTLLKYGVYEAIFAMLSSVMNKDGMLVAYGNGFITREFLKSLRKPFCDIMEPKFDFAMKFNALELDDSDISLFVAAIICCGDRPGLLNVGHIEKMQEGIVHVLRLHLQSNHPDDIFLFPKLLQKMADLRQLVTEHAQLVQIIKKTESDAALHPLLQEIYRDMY
From the text: De préférence, l'activateur des récepteurs de type PPARγ est spécifique, c'est à dire qu'il présente un rapport du pourcentage d'activation des récepteurs PPARγ, au pourcentage d'activation des récepteurs PPARα (calculé par rapport à un composé de référence, le Wy 14643, activant les PPARα de 100%) supérieur ou égal à 3. De préférence, ce rapport est supérieur ou égal à 5 et plus avantageusement supérieur ou égal à 10.
as §1, §2, §3, §4, §5
En appliquant ce même protocole avec le récepteur chimère Gal-PPARα, on peut mesurer l'activité agoniste des composés vis à vis des récepteurs PPAR alpha et ainsi la comparer avec celui du récepteur PPARγ.
as §6

activation at 1 µM [1] [%] | activation at 1 µM [2] [%] | SMILES
108 | -3.9 | CN(C)c1ccc(NC(=O)N(C)c2cccc(-c3ccc(CC4SC(=O)NC4=O)cc3)c2)cc1 (stereo not shown) [Composé de l'exemple 22, 3-(4-Dimethylamino-phenyl)-1-[4'-(2,4-dioxo-thiazolidin-5-ylmethyl)-biphenyl-3-yl]-1-methyl-urée]
90 | 11.9 | CCO[C@@H](Cc1ccc(-c2cccc(CN(C)C(=O)c3ccc4cc(OCOCCOC)ccc4c3)c2)cc1)C(=O)O [Composé de l'exemple 23, Acide (S)-2-Ethoxy-3-{3'-[({1-[6-(2-methoxy-ethoxymethoxy)-naphthalen-2-yl]-methanoyl}-methyl-amino)-methyl]-biphenyl-4-yl}-propionique]
